Measurements taken from US20090082406A1, “Cancer Therapy” (National Health Research Institutes, priority 2004, published 2009).

Columns and labels:
[1] = tested on: DBTRG 05MG cells (human glioblastoma cells); assay: sulforhodamine assay of cell numbers, DBTRG 05MG cells; format: cell-based; details: 6 days
Procedure: DBTRG 05MG cells (human glioblastoma cells) were treated for 6 days with 0.5 μM of lovastatin (Clabiochem) alone and 10 μM of troglitazone (Clabiochem) alone. Cell numbers were then measured by the sulforhodamine assay (see, e.g., Rubinstein, L. V. et al., J. Natl. Cancer Institute, 1990, 82: 113).
The same cells were also treated with combinations of lovastatin and troglitazone at various ratios. The combination index values were calculated.
DBTRG 05MG cells were treated for 6 days with lovastatin (0.5 μM), troglitazone (10 μM), and mevalonolacetone (100 μM), the downstream product of […]. Cell numbers were measured by the sulforhodamine assay (see, e.g., Rubinstein, L. V. et al., J. Natl. Cancer Institute, 1990, 82: 113).

[2] = tested on: cyclin-dependent kinase 2 (CDK-2); assay: Western blotting assay of CDK-2 in DBTRG 05MG cells; format: cell-based, human; details: 3 days, lovastatin (1 μM) alone
Procedure: (§1) Cell cycle-regulating proteins, cyclin-dependent kinase 2 (CDK-2), cyclin A, Rb protein, and p27^kip1 were tested to determine the effect of lovastain and troglitazone on regulating the cell cycle. Note that p27^kip1 is a universal CDK inhibitor and can modulate the drug resistance of cancer cells (Lloyd, R. V., Am. J. Pathol. 1999, 154: 313-323). Rb binds to many proteins, including several important gene regulatory proteins. Its binding capacity depends on its state of phosphoration. When Rb is dephosphorated, it binds to a set of regulatory proteins (e.g., E2F-1) that favor cell proliferation; and when phosphorated, it releases these proteins, thereby allowing them to act. […] The concentrations of cyclin-dependent kinase 2 (CDK-2), cyclin A, p27^kip1, Rb protein, and E2F-1 were determined by the Western blotting assay. Briefly, whole cell lysates were prepared with a radioimmunoprecipitation buffer supplemented with protease inhibitors (Sigma). The lysates were subjected to a sodium dodecylsulfate-polyacrylamide gel electrophoresis and transferred to polyvinylidene difluoride membranes (Bio-Rad) by electroblotting. After having been blocked for 1 hour at room temperature, the membranes were probed with a primary antibody overnight at 4° C. and then with a horseradish peroxidase-conjugated secondary antibody for 1 hour. […]

[3] = tested on: cyclin A; assay: Western blotting assay of cyclin A in DBTRG 05MG cells; format: cell-based, human; details: 3 days, lovastatin (1 μM) alone
Procedure: as §1

[4] = tested on: E2F-1; assay: Western blotting assay of E2F-1 in DBTRG 05MG cells; format: cell-based, human; details: 3 days, lovastatin (1 μM) alone
Procedure: as §1

[5] = tested on: p27^kip1; assay: Western blotting assay of p27^kip1 in DBTRG 05MG cells; format: cell-based, human; details: 3 days, lovastatin (1 μM) alone
Procedure: as §1

[6] = tested on: Rb protein; assay: Western blotting assay of Rb and phosphor-Rb (Ser807/811) in DBTRG 05MG cells; format: cell-based, human; details: 3 days, lovastatin (1 μM) alone
Procedure: as §1

Question: With Cc1c(C)c2c(c(C)c1O)CCC(C)(COc1ccc(CC3SC(=O)NC3=O)cc1)O2 (centres unmarked) [troglitazone] as the molecule, how does the cell number decrease ([1]; 10 μM of troglitazone alone) read?
Answer: 11%

Question: How did the “effect of added mevalonolacetone on the synergistic effect of lovastatin and troglitazone on cell numbers” value ([1]; lovastatin (0.5 μM), troglitazone (10 μM), mevalonolacetone (100 μM)) turn out when C[C@@]1(O)CCOC(=O)C1 [mevalonolacetone] was run?
Answer: significantly attenuated

Question: What does the source list for CC[C@H](C)C(=O)O[C@H]1C[C@@H](C)C=C2C=C[C@H](C)[C@H](CC[C@@H]3C[C@@H](O)CC(=O)O3)[C@H]21 [lovastatin]?
Answer: cell number decrease ([1]; 0.5 μM of lovastatin alone): 9.7%; level of CDK-2 [2]: little or no change; level of cyclin A [3]: little or no change; level of E2F-1 [4]: little or no change; level of p27^kip1 [5]: little or no change; level of Rb [6]: little or no change
